Measurements published in ChEMBL document CHEMBL5316264, “Identification of N- and C-3-Modified Laudanosoline Derivatives as Novel Influenza PAN Endonuclease Inhibitors” (J Med Chem, 2023).
≈ marks a conversion by molar mass, not a printed value. Calls of active or inactive are those of the source. No cut-off for these calls is given here.

Key:
Influenza A virus [1] = assay: Antiviral activity against Influenza A A/WSN/33 (H1N1) infected in BALB/c mouse at 30 mg/kg/day, ip administered twice daily for 5 days starting from 1 hrs post infection and measured daily for 14 days; format: functional, organism-based; settings: time 5.0 day
Influenza A virus [2] = assay: Antiviral activity against influenza A virus A/WSN/33 (H1N1) infected in MDCK cells assessed as reduction in nucleoprotein expression at 20 uM cells pre-infected with virus for 1 hr followed by compound addition; format: functional, organism-based
[3] = Tmax in BALB/c nude mouse at 15 mg/kg, ip measured after 24 hrs by LC-MS/MS analysis; format: ADME, organism-based; settings: in vivo
[4] = Distribution coefficient, logD of compound at pH 7.4; format: physicochemical; settings: octanol/water
[5] = AUC (0 to t) in BALB/c nude mouse at 15 mg/kg, ip measured after 24 hrs by LC-MS/MS analysis; format: ADME, organism-based; set-up: time 24 hrs, dose 15 mg/kg, route ip; settings: in vivo
[6] = Half life in BALB/c nude mouse at 2 mg/kg, iv measured after 24 hrs by LC-MS/MS analysis; format: ADME, organism-based; settings: in vivo
[7] = Half life in BALB/c nude mouse at 10 mg/kg, po measured after 24 hrs by LC-MS/MS analysis; format: ADME, organism-based; settings: in vivo
[8] = Clearance in BALB/c nude mouse at 2 mg/kg, iv measured after 24 hrs by LC-MS/MS analysis; format: ADME, organism-based; settings: in vivo
[9] = Solubility of the compound in FaSSIF; format: physicochemical
Influenza A virus [10] = assay: Antiviral activity against influenza A virus H5N1(A/Duck/Guangdong/212/2004) infected in MDCK cells assessed as inhibition of cytopathic effect incubated for 48 hrs by MTT assay; format: functional, organism-based
in vitro = settings: dog, MDCK cells
[11] = AUC (0 to t) in BALB/c nude mouse at 2 mg/kg, iv measured after 24 hrs by LC-MS/MS analysis; format: ADME, organism-based; set-up: time 24 hrs, dose 2 mg/kg, route iv; settings: in vivo
[12] = Metabolic stability in mouse plasma assessed as compound remaining measured after 90 mins by LC-MS/MS analysis; format: ADME, cell-free; settings: read-out: Stability
[13] = Oral bioavailability in BALB/c nude mouse at 10 mg/kg measured after 24 hrs by LC-MS/MS analysis; format: ADME, organism-based; settings: in vivo
[14] = Metabolic stability in mouse liver microsomes assessed as intrinsic clearance at 10 uM incubated for 5 mins in presence of NADPH by LC-MS/MS analysis; format: ADME, Microsome; settings: read-out: CLH
Influenza A virus [15] = assay: Antiviral activity against influenza A virus A/WSN/33 (H1N1) infected in MDCK cells assessed as effect on matrix protein 2 expression at 20 uM pre-infected with virus for 30 mins followed by 1 hr incubation with cells; format: functional, organism-based; settings: time 1.5 hrs
Influenza A virus [16] = assay: Antiviral activity against influenza A virus A/WSN/33 (H1N1) infected in MDCK cells assessed as effect on matrix protein 2 expression at 20 uM pretreated with cells for 1 hr followed by viral infection; format: functional, organism-based
[17] = Bioavailability in BALB/c nude mouse at 15 mg/kg, ip measured after 24 hrs by LC-MS/MS analysis; format: ADME, organism-based; settings: in vivo
Influenza A virus [18] = assay: Antiviral activity against influenza A virus A/WSN/33 (H1N1) infected in MDCK cells assessed as reduction of ratio of pPOLI-Fluc to Renilla luciferase activity at 2.5 to 10 uM pre-infected with virus for 1 hr followed by compound addition and measured after 24 hrs post infection; format: functional, organism-based; settings: dose 2.5-10 µM
[19] = Aqueous solubility of compound; format: physicochemical
Influenza A virus [20] = assay: Antiviral activity against influenza A virus A/WSN/33 (H1N1) infected in MDCK cells assessed as effect on nucleoprotein viral protein expression at 20 uM pretreated with cells for 1 hr followed by viral infection; format: functional, organism-based
[21] = AUC (0 to t) in BALB/c nude mouse at 10 mg/kg, po measured after 24 hrs by LC-MS/MS analysis; format: ADME, organism-based; set-up: time 24 hrs, dose 10 mg/kg, route po; settings: in vivo
Influenza A virus [22] = assay: Antiviral activity against Influenza A A/WSN/33 (H1N1) infected in BALB/c mouse assessed as protection against body weight loss administered ip twice daily for 5 days starting from 1 hrs post infection and measured daily for 14 days; format: functional, organism-based; settings: dose 7.5-30 mg/kg/day, time 5.0 day
Influenza A virus [23] = assay: Antiviral activity against influenza A virus A/WSN/33 (H1N1) infected in MDCK cells assessed as reduction in PB2 mRNA level at 20 uM measured upto 10 hrs after viral infection by RT-PCR analysis; format: functional, organism-based
Influenza A virus [24] = assay: Antiviral activity against influenza A virus Flu (B/Lee/1940) infected in MDCK cells assessed as inhibition of cytopathic effect incubated for 48 hrs by MTT assay; format: functional, organism-based
Influenza A virus [25] = assay: Antiviral activity against influenza A virus A/WSN/33 (H1N1) infected in MDCK cells assessed as effect on nucleoprotein expression at 20 uM pre-infected with virus for 30 mins followed by 1 hr incubation with cells; format: functional, organism-based; settings: time 1.5 hrs
Influenza A virus [26] = assay: Antiviral activity against influenza A virus A/WSN/33 (H1N1) infected in MDCK cells assessed as reduction in PB2 mRNA level at 20 uM measured after 2 to 5 hrs after viral infection by RT-PCR analysis; format: functional, organism-based; settings: time 2-5 hrs
[27] = Metabolic stability in mouse plasma assessed as compound remaining measured after 30 mins by LC-MS/MS analysis; format: ADME, cell-free; settings: read-out: Stability
[28] = Cytotoxicity against MDCK cells incubated for 48 hrs by MTT assay; format: toxicity, cell-based, Canis lupus familiaris; settings: dog
Influenza A virus [29] = assay: Antiviral activity against influenza A virus A/WSN/33 (H1N1) infected in MDCK cells assessed as increase in inhibition of luciferase activity pre-infected with virus for 1 hr followed by compound addition and measured after 24 hrs post infection; format: functional, organism-based; settings: dose <= 6.0 nM
Influenza A virus [30] = assay: Antiviral activity against influenza A virus A/WSN/33 (H1N1) infected in MDCK cells assessed as inhibition of cRNA synthesis pre-infected with virus for 1 hr followed by compound addition and measured after 24 hrs post infection by RT-qPCR analysis; format: functional, organism-based; settings: dose 2.5-10 µM
Erythrocyte = assay: Inhibition of hemagglutination in chicken RBC cells infected with Influenza A virus A/WSN/33 (H1N1) assessed as reduction in virus-induced agglutination of erythrocytes at 0.31 to 81 uM pretreated with H5 antigen for 30 mins followed by addition of chicken erythrocytes measured after 1 hr; format: functional, cell-based; settings: Gallus gallus, dose 0.31-81 µM, time 1.5 hrs
[31] = Half life in BALB/c nude mouse at 15 mg/kg, ip measured after 24 hrs by LC-MS/MS analysis; format: ADME, organism-based; settings: in vivo
[32] = Metabolic stability in mouse liver S9 fraction assessed as intrinsic clearance at 10 uM incubated for 5 mins in presence of NADPH and UDPGA by LC-MS/MS analysis; format: ADME, subcellular; settings: read-out: CLH
Influenza A virus [33] = assay: Antiviral activity against influenza A virus A/WSN/33 (H1N1) infected in MDCK cells assessed as reduction in matrix protein 2 expression at 20 uM cells pre-infected with virus for 1 hr followed by compound addition; format: functional, organism-based
[34] = Metabolic stability in mouse plasma assessed as compound remaining measured after 120 mins by LC-MS/MS analysis; format: ADME, cell-free; settings: read-out: Stability
Influenza A virus [35] = assay: Antiviral activity against influenza A virus H3N2(JX/312) infected in MDCK cells assessed as inhibition of cytopathic effect incubated for 48 hrs by MTT assay; format: functional, organism-based
[36] = Metabolic stability in mouse liver microsomes assessed as half life at 10 uM incubated for 5 mins in presence of NADPH by LC-MS/MS analysis; format: ADME, Microsome
[37] = Metabolic stability in mouse plasma assessed as compound remaining measured after 60 mins by LC-MS/MS analysis; format: ADME, cell-free; settings: read-out: Stability
[38] = Cmax in BALB/c nude mouse at 10 mg/kg, po measured after 24 hrs by LC-MS/MS analysis; format: ADME, organism-based; set-up: dose 10 mg/kg, time 24 hrs, route po; settings: in vivo
Influenza A virus [39] = assay: Antiviral activity against influenza A virus A/WSN/33 (H1N1) infected in MDCK cells assessed as reduction in PB2 mRNA level at 20 uM measured after 5 to 8 hrs after viral infection by RT-PCR analysis; format: functional, organism-based; settings: time 5-8 hrs
[40] = Cmax in BALB/c nude mouse at 2 mg/kg, iv measured after 24 hrs by LC-MS/MS analysis; format: ADME, organism-based; set-up: time 24 hrs, dose 2 mg/kg, route iv; settings: in vivo
[41] = Cmax in BALB/c nude mouse at 15 mg/kg, ip measured after 24 hrs by LC-MS/MS analysis; format: ADME, organism-based; set-up: time 24 hrs, dose 15 mg/kg, route ip; settings: in vivo
[42] = Metabolic stability in mouse liver S9 fraction assessed as half life at 10 uM incubated for 5 mins in presence of NADPH and UDPGA by LC-MS/MS analysis; format: ADME, subcellular
[43] = Solubility of the compound in FeSSIF; format: physicochemical
[44] = Tmax in BALB/c nude mouse at 10 mg/kg, po measured after 24 hrs by LC-MS/MS analysis; format: ADME, organism-based; settings: in vivo
Influenza A virus [45] = assay: Antiviral activity against Influenza A A/WSN/33 (H1N1) infected in BALB/c mouse assessed as survival ratio at 15 mg/kg/day, ip administered twice daily for 5 days starting from 1 hrs post infection and measured daily for 14 days relative to control; format: functional; settings: time 14 day

Which Activity (Influenza A virus [1]) does the source give for CCCOC(=O)[C@@H]1Cc2cc(O)c(O)cc2[C@H](Cc2ccc(O)c(O)c2)N1C(=O)c1ccccc1Cl here?
Its Activity is “Active”.

And the Activity (Influenza A virus [2])?
The Activity was “Active”.

And the Tmax [3]?
Its Tmax is 27 min.

And the logD [4]?
Its logD is 3.25.

And the AUC(0-t) at 24 h [5]?
Its AUC(0-t) at 24 h is 0.791 µg·h/mL.

And the half-life [6]?
Its half-life is 19.8 min.

What about the half-life [7] of the same compound?
Its half-life is 49.2 min.

What about the clearance [8] of the same compound?
The clearance was 3.23 L/h/kg.

What about the solubility [9] of the same compound?
Its solubility is 78.2 µM (≈ 40 µg/mL).

And the EC50 (Influenza A virus [10])?
The EC50 was 1.12 µM.

And the selectivity ratio (in vitro)?
The selectivity ratio was 113.

What about the AUC(0-t) at 24 h [11] of the same compound?
Its AUC(0-t) at 24 h is 0.536 µg·h/mL.

What about the remaining at 1.5 h [12] of the same compound?
Its remaining at 1.5 h is 91.5%.

What about the bioavailability [13] of the same compound?
Its bioavailability is 6.13%.

And the microsomal CLint at 10 µM [14]?
Its microsomal CLint at 10 µM is 134 µL/min/mg.

And the Activity (Influenza A virus [15])?
Its Activity is “inactive”.

And the Activity (Influenza A virus [16])?
Its Activity is “inactive”.

And the bioavailability [17]?
Its bioavailability is 29.5%.

What about the Activity (Influenza A virus [18]) of the same compound?
The Activity was “Active”.

What about the solubility [19] of the same compound?
The solubility was 1.62 µM (≈ 0.829 µg/mL).

What about the Activity (Influenza A virus [20]) of the same compound?
Its Activity is “inactive”.

And the AUC(0-t) at 24 h [21]?
Its AUC(0-t) at 24 h is 0.164 µg·h/mL.

What about the Activity (Influenza A virus [22]) of the same compound?
The Activity was “Dose-Dependent Effect”.

What about the Activity (Influenza A virus [23]) of the same compound?
Its Activity is “Active”.

And the EC50 (Influenza A virus [24])?
Its EC50 is 0.43 µM.

And the Activity (Influenza A virus [25])?
Its Activity is “inactive”.

What about the Activity (Influenza A virus [26]) of the same compound?
Its Activity is “Active”.

And the remaining at 0.5 h [27]?
Its remaining at 0.5 h is 100%.

What about the CC50 at 48 h [28] of the same compound?
The CC50 at 48 h was 99.5 µM.

And the Activity (Influenza A virus [29])?
Its Activity is “Dose-Dependent Effect”.

And the Activity (Influenza A virus [30])?
Its Activity is “Dose-Dependent Effect”.

What about the inhibition (Erythrocyte) of the same compound?
The inhibition was “inactive”.

What about the half-life [31] of the same compound?
The half-life was 64.2 min.

What about the microsomal CLint at 10 µM [32] of the same compound?
Its microsomal CLint at 10 µM is 9.57 µL/min/mg.

What about the Activity (Influenza A virus [33]) of the same compound?
The Activity was “Active”.

What about the remaining at 2 h [34] of the same compound?
The remaining at 2 h was 89.8%.

What about the EC50 (Influenza A virus [35]) of the same compound?
Its EC50 is 0.76 µM.

And the half-life at 10 µM [36]?
The half-life at 10 µM was 9.2 min.

What about the remaining at 1 h [37] of the same compound?
Its remaining at 1 h is 95.6%.

And the Cmax [38]?
The Cmax was 0.0922 µg/mL.

And the Activity (Influenza A virus [39])?
Its Activity is “Active”.

And the Cmax [40]?
The Cmax was 1.59 µg/mL.

What about the Cmax [41] of the same compound?
The Cmax was 0.89 µg/mL.

And the half-life at 10 µM [42]?
Its half-life at 10 µM is 103 min.

And the solubility [43]?
Its solubility is 75.3 µM (≈ 38.6 µg/mL).

What about the Tmax [44] of the same compound?
The Tmax was 31.2 min.

And the Activity (Influenza A virus [45])?
Its Activity is 60%.
